Paper PMC3977054, “Design, Synthesis and Biological Evaluation of 5-Oxo-1,4,5,6,7,8 Hexahydroquinoline Derivatives as Selective Cyclooxygenase-2 Inhibitors” (Iranian Journal of Pharmaceutical Research : IJPR, 2014)

Columns and labels:
COX-2 = target: T1, COX-2 (Ovis aries, UniProt P79208); experiment: biochemical; settings: for COX-2 S.I. (COX-1 IC50/ COX-2 IC50): in-vitro COX-2 selectivity index; for IC50: ovine COX-1/COX-2 assay kit, mean of two determinations, deviation < 10% of the mean
T1 construct: purchased Cayman chemical, MI, USA
T1 sequence (P79208 17-603): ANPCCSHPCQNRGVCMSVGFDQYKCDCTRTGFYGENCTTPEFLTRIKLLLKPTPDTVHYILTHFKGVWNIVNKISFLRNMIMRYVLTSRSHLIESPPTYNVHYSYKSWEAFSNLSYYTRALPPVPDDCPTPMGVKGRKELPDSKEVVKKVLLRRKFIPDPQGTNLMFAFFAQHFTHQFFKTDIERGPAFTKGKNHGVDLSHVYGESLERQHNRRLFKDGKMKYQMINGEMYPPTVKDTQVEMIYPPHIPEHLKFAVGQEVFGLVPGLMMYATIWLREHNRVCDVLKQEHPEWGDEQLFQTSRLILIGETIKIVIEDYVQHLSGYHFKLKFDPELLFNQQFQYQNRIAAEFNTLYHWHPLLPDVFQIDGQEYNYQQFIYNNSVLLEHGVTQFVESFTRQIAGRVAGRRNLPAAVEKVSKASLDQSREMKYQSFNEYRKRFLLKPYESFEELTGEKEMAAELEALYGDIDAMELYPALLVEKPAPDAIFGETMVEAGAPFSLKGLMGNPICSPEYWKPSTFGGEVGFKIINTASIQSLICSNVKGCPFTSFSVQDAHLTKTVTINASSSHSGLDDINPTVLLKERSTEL
Method: (§1) In-vitro cyclooxygenase (COX) inhibition assays
(§2) The assay was performed using an enzyme chemiluminescent kit (Cayman chemical, MI, USA) according to our previously reported method ([10]).

COX-1 = target: T2, COX-1 (Ovis aries, UniProt P05979); experiment: biochemical; settings: ovine COX-1/COX-2 assay kit; mean of two determinations, deviation < 10% of the mean
T2 construct: purchased Cayman chemical, MI, USA
T2 sequence (P05979 25-600): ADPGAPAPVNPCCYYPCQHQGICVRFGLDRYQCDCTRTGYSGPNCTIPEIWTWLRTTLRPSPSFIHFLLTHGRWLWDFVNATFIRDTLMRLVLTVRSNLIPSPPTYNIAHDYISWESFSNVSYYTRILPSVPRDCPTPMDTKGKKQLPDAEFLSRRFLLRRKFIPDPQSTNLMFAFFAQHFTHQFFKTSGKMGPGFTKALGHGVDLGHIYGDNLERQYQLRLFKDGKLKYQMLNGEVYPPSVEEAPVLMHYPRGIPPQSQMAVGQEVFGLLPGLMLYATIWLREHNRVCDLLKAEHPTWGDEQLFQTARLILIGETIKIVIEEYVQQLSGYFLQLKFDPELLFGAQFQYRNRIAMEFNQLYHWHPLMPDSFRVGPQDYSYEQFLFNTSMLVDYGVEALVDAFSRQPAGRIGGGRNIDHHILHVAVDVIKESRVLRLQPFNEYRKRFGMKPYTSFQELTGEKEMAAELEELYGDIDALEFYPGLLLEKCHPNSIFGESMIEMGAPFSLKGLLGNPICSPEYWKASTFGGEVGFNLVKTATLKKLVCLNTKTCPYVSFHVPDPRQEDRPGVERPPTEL
Method: as §1, §2

Row | SMILES | COX-2 S.I. (COX-1 IC50/ COX-2 IC50) (COX-2) | IC50 (COX-2) | IC50 (COX-1) | melting point
1 | CC1(C)CC(=O)C2=C(C1)NC(c1ccc(S(C)(=O)=O)cc1)=CC2c1ccccc1 (stereo not shown) [Compound 9a] | 3.3 | 0.8 µM | 2.6 µM | 
2 | Cc1ccc(C2C=C(c3ccc(S(C)(=O)=O)cc3)NC3=C2C(=O)CC(C)(C)C3)cc1 (stereo not shown) [Compound 9b] | 5.6 | 0.45 µM | 2.5 µM | 
3 | COc1ccc(C2C=C(c3ccc(S(C)(=O)=O)cc3)NC3=C2C(=O)CC(C)(C)C3)cc1 (stereo not shown) [Compound 9c, 7,8-Dihydro-7,7-dimethyl-4-(4-methoxyphenyl)-2-(4-(methylsulfonyl)phenyl) quinolin-5(1H, 4H, 6H)-one] |  | 0.17 µM | 16.6 µM | 250 to 253 °C
4 | CC1(C)CC(=O)C2=C(C1)NC(c1ccc(S(C)(=O)=O)cc1)=CC2c1ccc(F)cc1 (stereo not shown) [Compound 9d] | 43 | 0.3 µM | 12.9 µM | 130 to 133 °C
5 | CC1(C)CC(=O)C2=C(C1)NC(c1ccc(S(C)(=O)=O)cc1)=CC2c1ccc(Cl)cc1 (stereo not shown) [Compound 9e] | 3.8 | 4.9 µM | 18.7 µM | 232 to 236 °C
6 | CC1(C)CC(=O)C2=C(C1)NC(c1ccc(S(C)(=O)=O)cc1)=CC2c1ccc(Br)cc1 (stereo not shown) [Compound 9f] | 2.1 | 10.1 µM | 20.9 µM | 237 to 240 °C
7 | CC1(C)CC(=O)C2=C(C1)NC(c1ccc(S(C)(=O)=O)cc1)=CC2c1ccc([N+](=O)[O-])cc1 (stereo not shown) [Compound 9g] | 1.1 | 16.6 µM | 17.6 µM | 
8 | CC1(C)CC(=O)C2=C(C1)NC(c1ccccc1)=CC2c1ccc(S(C)(=O)=O)cc1 (stereo not shown) [Compound 9h] | 3.1 | 1.16 µM | 3.6 µM | 205 to 208 °C
9 | Cc1ccc(C2=CC(c3ccc(S(C)(=O)=O)cc3)C3=C(CC(C)(C)CC3=O)N2)cc1 (stereo not shown) [Compound 9i, 7,8-Dihydro-7,7-dimethyl-2-(4-methylphenyl)-4-(4-(methylsulfonyl)phenyl) quinolin-5(1H, 4H, 6H)-one] | 2.2 | 1.3 µM | 2.9 µM | 223 to 225 °C
10 | COc1ccc(C2=CC(c3ccc(S(C)(=O)=O)cc3)C3=C(CC(C)(C)CC3=O)N2)cc1 (stereo not shown) [Compound 9j, 7,8-Dihydro-2-(4-methoxyphenyl)-7,7-dimethyl-4-(4-(methylsulfonyl)phenyl) quinolin-5(1H, 4H, 6H)-one] | 62.3 | 0.3 µM | 18.7 µM | 226 to 230 °C
11 | CC1(C)CC(=O)C2=C(C1)NC(c1ccc(F)cc1)=CC2c1ccc(S(C)(=O)=O)cc1 (stereo not shown) [Compound 9k, 2-(4-Fluorophenyl)-7,8-dihydro-7,7-dimethyl-4-(4-(methylsulfonyl)phenyl) quinolin-5 (1H, 4H, 6H)-one] | 14.2 | 1 µM | 14.2 µM | 226 to 230 °C
12 | CC1(C)CC(=O)C2=C(C1)NC(c1ccc(Cl)cc1)=CC2c1ccc(S(C)(=O)=O)cc1 (stereo not shown) [Compound 9l, 2-(4-Cholorophenyl)-7,8-dihydro-7,7-dimethyl-4-(4-(methylsulfonyl)phenyl) quinolin-5(1H, 4H, 6H)-one] | 3.1 | 6.9 µM | 21.6 µM | 226 to 230 °C
13 | CC1(C)CC(=O)C2=C(C1)NC(c1ccc(Br)cc1)=CC2c1ccc(S(C)(=O)=O)cc1 (stereo not shown) [Compound 9m, 2-(4-Bromophenyl)-7,8-dihydro-7,7-dimethyl-4-(4-(methylsulfonyl)phenyl) quinolin-5 (1H, 4H, 6H)-one] | 1.3 | 13.2 µM | 17.9 µM | 226 to 230 °C
14 | CC1(C)CC(=O)C2=C(C1)NC(c1ccc([N+](=O)[O-])cc1)=CC2c1ccc(S(C)(=O)=O)cc1 (stereo not shown) [Compound 9n, 7,8-Dihydro-7,7-dimethyl-4-(4-(methylsulfonyl)phenyl)-2-(4-nitrophenyl) quinolin-5 (1H, 4H, 6H)-one] | 0.7 | 24.9 µM | 18.6 µM | 226 to 230 °C
